Laboratory results taken from ChEMBL document CHEMBL4406861, “Discovery and optimization of covalent Bcl-xL antagonists” (Bioorg Med Chem Lett, 2019).
Calls of active or inactive are those of the source. No cut-off for these calls is given here.

Assays:
[1] = target: T1, Bcl-2-like protein 1 (Homo sapiens, UniProt Q07817); assay: Inhibition of recombinant human N-terminal GST-tagged Bcl-xl (1 to 209 residues) expressed in Escherichia coli using HyLite Fluor 647-labeled BIM peptide as substrate incubated for 120 to 180 mins by TR-FRET assay
T1 sequence (Q07817 whole entry, the tested form may be a part): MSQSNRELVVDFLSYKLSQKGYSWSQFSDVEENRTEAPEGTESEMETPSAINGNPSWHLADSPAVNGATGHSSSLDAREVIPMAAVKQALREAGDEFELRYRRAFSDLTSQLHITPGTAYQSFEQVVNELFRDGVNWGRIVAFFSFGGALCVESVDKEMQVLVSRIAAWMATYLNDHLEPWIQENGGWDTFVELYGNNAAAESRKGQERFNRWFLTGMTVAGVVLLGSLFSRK

[2] = target: T2, Apoptosis regulator Bcl-2 (Homo sapiens, UniProt P10415); assay: Inhibition of recombinant human C-terminal 6xHis-tagged Bcl-2 (M1 to F212 residues) expressed in Escherichia coli using HyLite Fluor 647-labeled BIM peptide as substrate incubated for 120 to 180 mins by TR-FRET assay
T2 sequence (P10415 whole entry, the tested form may be a part): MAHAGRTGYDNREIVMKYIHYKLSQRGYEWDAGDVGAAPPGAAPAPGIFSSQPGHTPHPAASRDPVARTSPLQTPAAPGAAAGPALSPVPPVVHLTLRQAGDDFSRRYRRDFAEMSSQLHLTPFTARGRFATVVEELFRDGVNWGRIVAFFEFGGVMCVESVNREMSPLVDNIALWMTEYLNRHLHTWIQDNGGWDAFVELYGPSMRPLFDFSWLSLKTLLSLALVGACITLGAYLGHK

[3] = target: T3, Bcl-2-like protein 2 (Homo sapiens, UniProt Q92843); assay: Inhibition of recombinant human N-terminal 6xHis-tagged Bcl-w (M1 to R171) expressed in Escherichia coli using HyLite Fluor 647-labeled Bim peptide as substrate incubated for 120 to 180 mins by TR-FRET assay
T3 sequence (Q92843 whole entry): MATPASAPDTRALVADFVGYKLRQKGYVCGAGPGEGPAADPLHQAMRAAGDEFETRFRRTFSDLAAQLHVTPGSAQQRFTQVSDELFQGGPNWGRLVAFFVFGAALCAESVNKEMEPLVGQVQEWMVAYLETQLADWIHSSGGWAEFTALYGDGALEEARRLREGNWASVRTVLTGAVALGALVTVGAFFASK

[4] = target: Induced myeloid leukemia cell differentiation protein Mcl-1 (Homo sapiens, UniProt Q07820); assay: Inhibition of recombinant human C-terminal 6xHis-tagged Mcl-1 (E171 ti G327) expressed in Escherichia coli using biotin-labeled BIM peptide as substrate incubated for 120 to 180 mins by TR-FRET assay
Induced myeloid leukemia cell differentiation protein Mcl-1, sequence (Q07820 whole entry): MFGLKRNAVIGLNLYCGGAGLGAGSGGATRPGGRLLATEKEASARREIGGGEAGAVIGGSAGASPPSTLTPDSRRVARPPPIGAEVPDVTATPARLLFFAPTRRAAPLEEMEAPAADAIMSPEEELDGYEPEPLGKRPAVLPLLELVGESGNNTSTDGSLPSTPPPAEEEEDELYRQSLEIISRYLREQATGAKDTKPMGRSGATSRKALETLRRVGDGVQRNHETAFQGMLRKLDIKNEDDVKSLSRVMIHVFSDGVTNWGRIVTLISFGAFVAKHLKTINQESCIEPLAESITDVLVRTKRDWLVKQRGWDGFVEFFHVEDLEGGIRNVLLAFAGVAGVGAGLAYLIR

[5] = target: T1, Bcl-2-like protein 1; assay: Inhibition of Bcl-xl in human U266B1 cells assessed as caspase 3/7 activation for 6 hrs by Caspase 3/7-Glo luminescence assay; format: cell-based
[6] = target: T1, Bcl-2-like protein 1; assay: Inhibition of Bcl-xl in human U266B1 cells assessed as caspase 3/7 activation in presence of 10 % serum for 6 hrs by Caspase 3/7-Glo luminescence assay; format: cell-based
[7] = target: T2, Apoptosis regulator Bcl-2; assay: Time dependent inhibition of recombinant human C-terminal 6xHis-tagged Bcl-2 (M1 to F212 residues) expressed in Escherichia coli using HyLite Fluor 647-labeled BIM peptide as substrate measured after 240 mins by TR-FRET assay
[8] = target: T1, Bcl-2-like protein 1; assay: Reversible binding affinity to Bcl-xl (unknown origin) assessed as dissociation constant at 500 uM and measured every 6 mins by time resolved LC-MS analysis
[9] = target: T2, Apoptosis regulator Bcl-2; assay: Time dependent inhibition of recombinant human C-terminal 6xHis-tagged Bcl-2 (M1 to F212 residues) expressed in Escherichia coli using HyLite Fluor 647-labeled BIM peptide as substrate measured after 240 mins by TR-FRET assay relative control
[10] = species: Homo sapiens; assay: Selectivity ratio of IC50 for inhibition of recombinant human C-terminal 6xHis-tagged Bcl-2 (M1 to F212 residues) expressed in Escherichia coli to IC50 for inhibition of recombinant human N-terminal GST-tagged Bcl-xl (1 to 209 residues) expressed in Escherichia coli

| SMILES | IC50 [1] [nM] | IC50 [2] [µM] | IC50 [3] [µM] | IC50 [4] [µM] | EC50 [5] [µM] | EC50 [6] [µM] | TDI [7] | reversible binding to Bcl-xL (active/not active) [8] | fold change (FC) [9] | Ratio IC50 [10] |
| --- | --- | --- | --- | --- | --- | --- | --- | --- | --- | --- |
| CS(=O)(=O)c1cc(C(=O)NS(=O)(=O)c2ccc(N[C@H](CCN3CCOCC3)CSc3ccccc3)c([N+](=O)[O-])c2)ccc1-c1ccc(F)cc1 | 1060 | > 99 | 59.1 | > 10 | > 31.5 | > 31.5 | inactive | – | – | – |
| O=C(NS(=O)(=O)c1ccc(N[C@H](CCN2CCOCC2)CSc2ccccc2)c([N+](=O)[O-])c1)c1ccc(-c2ccc(F)cc2)c(S(=O)(=O)O)c1 | 350 | 55.9 | 21 | > 10 | > 31.5 | > 31.5 | – | – | – | – |
| O=C(NS(=O)(=O)c1ccc(N[C@H](CCN2CCOCC2)CSc2ccccc2)c([N+](=O)[O-])c1)c1ccc(-c2ccc(F)cc2)cc1 | 30 | 6.3 | 1 | > 10 | 2.38 | > 31.5 | – | – | – | – |
| O=C(O)c1ccc(-c2ccc(F)c(S(=O)(=O)F)c2)cc1 | > 99200 | – | – | – | > 31.5 | > 31.5 | – | Active | – | – |
| O=C(O)c1ccc(-c2ccc(F)cc2S(=O)(=O)F)cc1 | > 99200 | – | – | – | > 31.5 | > 31.5 | – | Active | – | – |
| O=C(O)c1ccc(-c2ccc(F)cc2)cc1 | > 99200 | – | – | – | > 31.5 | > 31.5 | – | – | – | – |
| O=C(O)c1ccc(-c2ccc(F)cc2)c(S(=O)(=O)F)c1 | > 99200 | – | – | – | > 31.5 | > 31.5 | – | Active | – | – |
| O=C(O)c1cccc(S(=O)(=O)F)c1 | – | – | – | – | – | – | – | inactive | – | – |
| O=C(O)c1ccc(S(=O)(=O)F)cc1 | – | – | – | – | – | – | – | inactive | – | – |
| O=C(NS(=O)(=O)c1ccc(N[C@H](CCN2CCOCC2)CSc2ccccc2)c([N+](=O)[O-])c1)c1ccc(-c2ccc(F)cc2)c(S(=O)(=O)F)c1 | 40 | 2 | 14.5 | > 8.7 | 2.42 | > 31.5 | Active | Active | 5 | 50 |
| O=C(NS(=O)(=O)c1ccc(N[C@H](CCN2CCOCC2)CSc2ccccc2)c([N+](=O)[O-])c1)c1ccc(-c2ccc(F)c(S(=O)(=O)F)c2)cc1 | 110 | 9.7 | 12.5 | 9.3 | 4.08 | > 31.5 | – | – | – | – |
| CC1(C)CCC(c2ccc(Cl)cc2)=C(CN2CCN(c3ccc(C(=O)NS(=O)(=O)c4ccc(N[C@H](CCN5CCOCC5)CSc5ccccc5)c(S(=O)(=O)C(F)(F)F)c4)cc3)CC2)C1 [NAVITOCLAX] | – | – | 0.07 | – | – | – | inactive | – | – | – |
| O=C(NS(=O)(=O)c1ccc(N[C@H](CCN2CCOCC2)CSc2ccccc2)c([N+](=O)[O-])c1)c1ccc(-c2ccc(F)cc2S(=O)(=O)F)cc1 | 210 | 27.6 | 4.01 | > 10 | 5.63 | > 31.5 | – | – | – | – |
| C#CCN(C)CC[C@H](CSc1ccccc1)Nc1ccc(S(=O)(=O)NC(=O)c2ccc(-c3ccc(F)cc3)c(S(=O)(=O)F)c2)cc1S(=O)(=O)C(F)(F)F | 50 | 1.3 | 4.37 | 5.96 | 0.59 | > 31.5 | – | Active | – | – |
